# Results reported in patent US8426174B2, “Method for the production of 2-butanol” (Butamax(TM) Advanced Biofuels LLC, priority 2007, dated 2013).
# Where two headings read alike, the source gives them in different places.
# What was measured:
# [1] = test system: Lactobacillus plantarum PN0512; experiment: Growth of L. plantarum PN0512 in the presence of butanols at different temperatures; format: cell-based; set-up: key to Growth at 37° C. / Growth at 30° C. / Growth at 25° C.: +: growth observed as an increase in OD600.; −: no growth observed, i.e. no change in OD600
# Procedure: Tolerance levels of bacterial strain Lactobacillus plantarum PN0512 (ATCC # PTA-7727) were determined at 25° C., 30° C. and 37° C. as follows. The strain was cultured in S30L medium (i.e., 10 mM ammonium sulfate, 5 mM potassium phosphate buffer, pH 7.0, 50 mM MOPS, pH 7.0, 2 mM MgCl2, 0.7 mM CaCl2, 50 μM MnCl2, 1 μM FeCl3, 1 μM ZnCl2, 1.72 μM CuCl2, 2.53 μM CoCl2, 2.42 μM Na2MoO4, 2 μM thiamine hydrochloride, 10 mM glucose, and 0.2% yeast extract). An overnight culture in the absence of any test compound was started in 15 mL of the S30L medium in a 150 mL flask, with incubation at 37° C. in a shaking water bath. The next morning, the overnight culture was diluted into three 500 mL flasks containing 150 mL of fresh medium to an initial OD600 of about 0.08. Each flask was incubated in a shaking water bath, one each at 25° C., 30° C. and 37° C. Each large culture was allowed to acclimate at the test temperature for at least 0.5 h. […] Growth was followed by measuring OD600 for six hours after addition of the compounds.
# E. coli strain MG1655 = test system: E. coli strain MG1655
# Procedure: For the stationary phase studies, E. coli strain MG1655 (ATCC #700926) was grown overnight in LB medium (Teknova, Half Moon Bay, Calif.) with shaking at 250 rpm at 42° C., 29° C. or 28° C. […] To these were added 10 μL of the overnight cultures and the tubes were immediately placed in shaking incubators at 42° C. or 28° C. or left on ice for 30 min. […] Then, 5 μL of the undiluted treated cultures were spotted on LB agar plates. Subsequent 10-fold serial dilutions of 10^−3, 10^−4, 10^−5 and 10^−6 of the exposed cultures were done by serial pipetting of 20 μL, starting with the 10^−2 dilution cultures, into 180 μL of LB medium in the microplate, using a multi-channel pipette. Prior to each transfer, the cultures were mixed by pipetting up and down six times. Each dilution (5 μL) was spotted onto an LB plate using a multi-channel pipette and allowed to soak into the plate. The plates were inverted and incubated overnight at 37° C. […] Survival of 0% was recorded when no colonies in the spots of the undiluted or any of the serial dilutions were observed.
# [2] = 1.0 % (w/v) 1-butanol, grown at 29° C.
# [3] = 1.0 % (w/v) 1-butanol, grown at 42° C.
# [4] = 1.5 % (w/v) 1-butanol, grown at 29° C.
# [5] = 1.5 % (w/v) 1-butanol, grown at 42° C.
# [6] = 2.0 % (w/v) 1-butanol, grown at 29° C.
# [7] = 2.0 % (w/v) 1-butanol, grown at 42° C.
# [8] = 3.0 % (w/v) 1-butanol, grown at 29° C.
# [9] = 3.0 % (w/v) 1-butanol, grown at 42° C.
# [10] = 4.0 % (w/v) 1-butanol, grown at 29° C.
# [11] = 4.0 % (w/v) 1-butanol, grown at 42° C.
# [12] = […] (w/v) 1-butanol, grown at 29° C.
# [13] = […] (w/v) 1-butanol, grown at 42° C.
substance,measurement,setting,value
1-butanol,Growth at 37° C.,[1]; 1.0 % w/v 1-butanol,+
same,Growth at 37° C.,[1]; 1.2 % w/v 1-butanol,+
same,Growth at 37° C.,[1]; 1.4 % w/v 1-butanol,+
same,Growth at 25° C.,[1]; 1.5 % w/v 1-butanol,+
same,Growth at 30° C.,[1]; 1.5 % w/v 1-butanol,+
same,Growth at 37° C.,[1]; 1.5 % w/v 1-butanol,+
same,Growth at 37° C.,[1]; 1.6 % w/v 1-butanol,+
same,Growth at 37° C.,[1]; 1.8 % w/v 1-butanol,+
same,Growth at 25° C.,[1]; 2.0 % w/v 1-butanol,+
same,Growth at 30° C.,[1]; 2.0 % w/v 1-butanol,+
same,Growth at 37° C.,[1]; 2.0 % w/v 1-butanol,+
same,Growth at 37° C.,[1]; 2.1 % w/v 1-butanol,+
same,Growth at 37° C.,[1]; 2.2 % w/v 1-butanol,+
same,Growth at 37° C.,[1]; 2.3 % w/v 1-butanol,+
same,Growth at 25° C.,[1]; 2.4 % w/v 1-butanol,+
same,Growth at 30° C.,[1]; 2.4 % w/v 1-butanol,+
same,Growth at 37° C.,[1]; 2.4 % w/v 1-butanol,−^2
same,Growth at 30° C.,[1]; 2.7 % w/v 1-butanol,+
same,Growth at 37° C.,[1]; 2.7 % w/v 1-butanol,−
same,Growth at 25° C.,[1]; 2.9 % w/v 1-butanol,+
same,Growth at 30° C.,[1]; 2.9 % w/v 1-butanol,−
same,Growth at 37° C.,[1]; 2.9 % w/v 1-butanol,−
same,Growth at 25° C.,[1]; 3.1 % w/v 1-butanol,+
same,Growth at 30° C.,[1]; 3.1 % w/v 1-butanol,−
same,Growth at 37° C.,[1]; 3.1 % w/v 1-butanol,−
same,Growth at 25° C.,[1]; 3.2 % w/v 1-butanol,−
same,Growth at 30° C.,[1]; 3.2 % w/v 1-butanol,−
same,Growth at 25° C.,[1]; 3.3 % w/v 1-butanol,−
same,Growth at 25° C.,[1]; 3.4 % w/v 1-butanol,−
same,Growth at 30° C.,[1]; 3.4 % w/v 1-butanol,−
same,concentration in which growth was observed,[1]; 25° C.,3.1%
same,concentration in which growth was not observed,[1]; 30° C.,2.9%
same,concentration in which growth was observed,[1]; 30° C.,2.7%
same,concentration in which growth was not observed,[1]; 37° C.,2.4%
same,concentration in which growth was observed,[1]; 37° C.,2.3%
same,Growth at 37° C.,[1]; […] w/v 1-butanol,−
same,% survival after 30 min exposure at 28° C.,"E. coli strain MG1655; 1.0 % (w/v) 1-butanol, grown at 28° C.",100%
same,% survival after 30 min exposure at 0° C.,E. coli strain MG1655; [2],100%
same,% survival after 30 min exposure at 42° C.,E. coli strain MG1655; [2],100%
same,% survival after 30 min exposure at 0° C.,E. coli strain MG1655; [3],100%
same,% survival after 30 min exposure at 28° C.,E. coli strain MG1655; [3],100%
same,% survival after 30 min exposure at 42° C.,E. coli strain MG1655; [3],100%
same,% survival after 30 min exposure at 28° C.,"E. coli strain MG1655; 1.5 % (w/v) 1-butanol, grown at 28° C.",100%
same,% survival after 30 min exposure at 0° C.,E. coli strain MG1655; [4],100%
same,% survival after 30 min exposure at 42° C.,E. coli strain MG1655; [4],0.1%
same,% survival after 30 min exposure at 0° C.,E. coli strain MG1655; [5],100%
same,% survival after 30 min exposure at 28° C.,E. coli strain MG1655; [5],100%
same,% survival after 30 min exposure at 42° C.,E. coli strain MG1655; [5],0.1%
same,% survival after 30 min exposure at 28° C.,"E. coli strain MG1655; 2.0 % (w/v) 1-butanol, grown at 28° C.",100%
same,% survival after 30 min exposure at 0° C.,E. coli strain MG1655; [6],100%
same,% survival after 30 min exposure at 42° C.,E. coli strain MG1655; [6],0.1%
same,% survival after 30 min exposure at 0° C.,E. coli strain MG1655; [7],100%
same,% survival after 30 min exposure at 28° C.,E. coli strain MG1655; [7],100%
same,% survival after 30 min exposure at 42° C.,E. coli strain MG1655; [7],0%
same,% survival after 30 min exposure at 28° C.,"E. coli strain MG1655; 3.0 % (w/v) 1-butanol, grown at 28° C.",100%
same,% survival after 30 min exposure at 0° C.,E. coli strain MG1655; [8],100%
same,% survival after 30 min exposure at 42° C.,E. coli strain MG1655; [8],0%
same,% survival after 30 min exposure at 0° C.,E. coli strain MG1655; [9],100%
same,% survival after 30 min exposure at 28° C.,E. coli strain MG1655; [9],100%
same,% survival after 30 min exposure at 42° C.,E. coli strain MG1655; [9],0%
same,% survival after 30 min exposure at 28° C.,"E. coli strain MG1655; 4.0 % (w/v) 1-butanol, grown at 28° C.",0.0003%
same,% survival after 30 min exposure at 0° C.,E. coli strain MG1655; [10],100%
same,% survival after 30 min exposure at 42° C.,E. coli strain MG1655; [10],0%
same,% survival after 30 min exposure at 0° C.,E. coli strain MG1655; [11],100%
same,% survival after 30 min exposure at 28° C.,E. coli strain MG1655; [11],0.0004%
same,% survival after 30 min exposure at 42° C.,E. coli strain MG1655; [11],0%
same,% survival after 30 min exposure at 0° C.,"E. coli strain MG1655; 5.0 % (w/v) 1-butanol, grown at 29° C.",1%
same,% survival after 30 min exposure at 0° C.,"E. coli strain MG1655; 5.0 % (w/v) 1-butanol, grown at 42° C.",1%
same,% survival after 30 min exposure at 0° C.,"E. coli strain MG1655; 6.0 % (w/v) 1-butanol, grown at 29° C.",0.001%
same,% survival after 30 min exposure at 0° C.,"E. coli strain MG1655; 6.0 % (w/v) 1-butanol, grown at 42° C.",0%
same,% survival after 30 min exposure at 0° C.,"E. coli strain MG1655; 7.0 % (w/v) 1-butanol, grown at 29° C.",0%
same,% survival after 30 min exposure at 0° C.,"E. coli strain MG1655; 7.0 % (w/v) 1-butanol, grown at 42° C.",0%
same,% survival after 30 min exposure at 0° C.,E. coli strain MG1655; [12],100%
same,% survival after 30 min exposure at 42° C.,E. coli strain MG1655; [12],0%
same,% survival after 30 min exposure at 0° C.,E. coli strain MG1655; [13],100%
same,% survival after 30 min exposure at 42° C.,E. coli strain MG1655; [13],0%
